{
  "source": "patent US11999782B2",
  "about": "“Therapeutic agents for the treatment of diseases associated with undesired cell proliferation” (Fundació Privada Institutció Catalana de Recerca I Estudis …, priority 2009, dated 2024)",
  "key": {"[1]": {"tested_on": "LIF expression in normal human neuroprogenitors", "test": "LIF mRNA in neurospheres of normal human neuroprogenitors", "type": "cell-based", "details": "100 pM, 3 hours, compared with GBM neurospheres", "method": "FIG. 8. Effect of TGFβ on the capacity of self-renewal of normal human neuroprogenitors. (A) Immunocytochemistry of the indicated markers was performed in human neuroprogenitor neurospheres. (B) Neurospheres of the sample of GBM1 and of human neuroprogenitors were incubated with the indicated members of the 100 pM TGFβ family for 3 hours and the mRNA levels of LIF were determined. (C, D) Neurosphere cells of normal human neuroprogenitors were incubated in the same conditions that have been described above in FIG. 1D in the presence of 100 pM TGFβ1 or 20 ng/ml LIF for 7 days and the number of newly formed neurospheres (C) and the number total of cells (D) were determined.\nThe U373MG and A172 cells were a generous gift from J. Rich and D. Bigner and were cultured in DMEM with 10% fetal bovine serum (FBS). The primary culture of tumor cells (PCTC) and the GBM neurospheres were generated as described (Bruna et al., (2007) Cancer Cell 11, 147-160; Gunther et al., (2008) Oncogene. May 1; 27(20):2897-909). Briefly, the samples of tumors were processed in the 30 minutes after the surgical resection. The ground pieces of the samples of human gliomas were digested with 200 U/ml collagenase I (Sigma) and 500 U/ml of DNase I (Sigma) in PBS for 2 hours at 37° C. and with constant vigorous stirring. The suspension of individual cells was filtered through a 70 μm cell filter (BD Falcon) and washed with PBS. […]\n(§1) qRT-PCR was performed using Taqman probes from Applied Biosystems, according to the manufacturer's recommendations. The reactions were carried out in a ABI 7000 sequence detector (Perkin Elmer) and the results were expressed as the fold change calculated by means of the DDCt method relative to the control sample or the first quantified sample. […]\nIt was decided to assess whether this effect was specific to tumor cells or was also present in normal neuroprogenitor cells. […] First, it was determined if TGFβ induced LIF in normal human neuroprogenitors. […]"}, "[2]": {"tested_on": "LIF expression in PCTC cells", "test": "LIF mRNA by qRT-PCR in PCTCs of human GBM", "type": "cell-based", "details": "PCTCs from 11 human GBMs, 100 pM TGFβ1, 3 hours, medium without serum", "method": "FIG. 3. TGFβ induces the expression of LIF in PCTC and GBM neurospheres. (A) PCTC cells of the 11 samples of the indicated GEM (GBM1-11) were treated with 100 pM TGFβ1 for 3 hours in medium without serum or left untreated, and the expression levels of LIF were determined by means of qRT-PCR. The g-actin was determined as an internal normalization control. (B) GBM neurosphere cells were treated as in A and the expression levels of LIF were determined by means of qRT-PCR as in A. (C) GBM neurospheres were incubated with 100 pM TGFβ1 and/or 2 μM TβRI inhibitor for 3 hours in medium without serum and the mRNA levels of LIF were determined by means of qRT-PCR as in A. (D) GBM1 neurospheres were incubated with 100 pM TGFβ1, TGFβ2 and TGFβ3 for 3 hours in medium without serum and the mRNA levels of LIF were determined by means of qRT-PCR as in A. (E) The levels of LIF protein secreted were determined by means of ELISA in GBM1 neurospheres after 48 hours of treatment with 100 pM TGFβ1. […]\nas §1"}},
  "data": [
    {"substance": "TGFβ: TGFβ1 (R&D Systems), used at 100 pM according to the figure legends", "values": [
      {"measurement": "induction of LIF mRNA in normal human neuroprogenitor neurospheres", "setting": "[1]", "value": "did not induce LIF"},
      {"measurement": "levels of LIF mRNA in PCTCs", "setting": "[2]", "value": "induced LIF in all the PCTCs assayed"}
    ]}
  ]
}
